# Data taken from article PMC8151276, “An Integrated Approach toward NanoBRET Tracers for Analysis of GPCR Ligand Engagement” (Molecules, 2021).
# Target: T1, LGR5 (Homo sapiens, UniProt O75473)
# T1 construct: purchased Promega (in-house HiBiT-GPCR construct library, NanoBRET)
# T1 sequence (O75473 22-907): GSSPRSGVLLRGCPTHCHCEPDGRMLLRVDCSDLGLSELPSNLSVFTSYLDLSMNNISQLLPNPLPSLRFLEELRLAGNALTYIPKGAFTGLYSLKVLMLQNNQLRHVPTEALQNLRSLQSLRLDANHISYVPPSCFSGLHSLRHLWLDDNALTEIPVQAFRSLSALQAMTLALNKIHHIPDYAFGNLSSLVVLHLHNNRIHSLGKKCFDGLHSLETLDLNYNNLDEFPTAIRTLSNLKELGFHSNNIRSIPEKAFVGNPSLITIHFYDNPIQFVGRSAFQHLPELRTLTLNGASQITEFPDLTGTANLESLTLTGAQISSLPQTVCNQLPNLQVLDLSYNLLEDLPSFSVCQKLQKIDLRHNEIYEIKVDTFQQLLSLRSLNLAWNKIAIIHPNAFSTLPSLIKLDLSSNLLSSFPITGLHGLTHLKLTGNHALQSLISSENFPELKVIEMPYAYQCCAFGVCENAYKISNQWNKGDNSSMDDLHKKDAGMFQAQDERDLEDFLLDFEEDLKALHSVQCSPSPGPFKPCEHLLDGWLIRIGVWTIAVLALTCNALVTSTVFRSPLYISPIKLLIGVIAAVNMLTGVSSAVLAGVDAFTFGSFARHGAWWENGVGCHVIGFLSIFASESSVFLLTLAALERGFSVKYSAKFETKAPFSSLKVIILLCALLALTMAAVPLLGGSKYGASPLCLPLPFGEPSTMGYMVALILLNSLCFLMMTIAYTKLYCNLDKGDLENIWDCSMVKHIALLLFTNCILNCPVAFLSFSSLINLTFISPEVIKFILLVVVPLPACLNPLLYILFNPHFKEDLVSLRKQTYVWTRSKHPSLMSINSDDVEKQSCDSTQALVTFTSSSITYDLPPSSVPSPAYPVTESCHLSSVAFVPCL
# Experiment: NanoBRET screen HiBiT-LGR5 in HEK293
# Format: binding
# Method: Each tracer candidate was screened across the entire library of HiBiT-GPCR constructs using NanoBRET as the detection modality. As depicted in Figure 4A, the specificity of interactions was evaluated through decrease in BRET due to competitive displacement of a bound tracer by excess parental compound. Each tracer was analyzed for binding to each HiBiT-GPCR fusion in the absence and in the presence of competing parental compound. Briefly, HEK293 cells were transfected with HiBiT-GPCR constructs diluted into promoterless DNA to reduce expression and maximize translocation to the cell surface. Each tracer candidate was then screened at concentrations of 1 μM and 0.1 μM across cells expressing these fusions. Cells were treated for 1.5 h with tracer either alone or in the presence of 20 μM competing parental compound (i.e., control). BRET was measured upon addition of purified LgBiT and subsequent complementation with HiBiT genetically fused to a GPCR. The specificity of interactions was assessed through a decrease in BRET signal due to competitive displacement of the bound tracer. To further gauge the robustness of these interactions, the fold response over the control (i.e., BRETtracer/BRETcontrol) was calculated. We chose a 1.5-fold response, which translates to ≥7-fold signal over noise as the minimal threshold required to score an interaction as positive.
# HiBiT-GPCR DNA constructs were diluted in 10 mM Tris pH 8 to a final concentration of 0.01 μg/μL, arrayed in 96-well plates and stored at −20 °C. For transfection, HEK293 cells were suspended in Opti-MEM (without phenol red) supplemented with 2% fetal bovine serum (Seradigm) and 100 units/mL penicillin–streptomycin (Gibco) at a final concentration of 220,000 cells/mL and dispensed into white 96-well plates at 90 μL/well. Subsequent transfections and screens were carried using an Agilent Bravo Automated Liquid Handling Platform. First, the 96-well HiBiT DNA arrays were diluted 25-fold in Opti-MEM (without serum or phenol red) to a final concentration of 0.0004 μg/μL and 20 μL of the diluted DNAs were transferred into new 96-well plates. Next, promoterless carrier DNA (1 μg/μL) was diluted 25-fold (0.04 μg/μL) and then dispensed into the diluted arrays at 20 μL/well. Following brief mixing, Viafect transfection reagent (Promega) diluted 16-fold into Opti-MEM was dispensed into the plates at 40 μL/well. After mixing by pipetting, plates were incubated for 10 min on the pipetting station deck. The DNA-transfection reagent complexes were then added to plates containing cells. To facilitate the screen, 10 μL of DNA-transfection reagent complexes were added in duplicates to the top 4 and bottom 4 rows, resulting in two identical 48-well arrays per plate. Plates with transfected cells were incubated for 18–20 h at 37 °C/5% CO2. A screen of each tracer across the entire library using two different concentrations requires duplicate plates of transfected cells. Depending on the number of tracers being screened, transfections can be scaled up using the same ratios. The next day, for each tracer, four 20× screening solutions in tracer dilution buffer (Promega) were prepared: two duplicates at final concentration of 20 μM and two duplicates at a final concentration of 2 μM. […] The four resulting solutions were diluted 4-fold in Opti-MEM without serum or phenol red to generate 5× solutions (5 µM and 0.5 µM tracer +/− 100 μM competing compound). To screen the library, a BioTek MultiFlo FX liquid dispenser was used to dispense 22.5 µL of tracer solution to the top 4 rows and 22.5 µL tracer + competing compound solution to the 4 bottom rows. Plates were briefly mixed on an orbital shaker and incubated for 1.5 h at room temperature. […] Plates were briefly mixed on an orbital shaker and incubated for 15 min to allow complementation.
Structure (SMILES),"NanoBRET Fold Response (LGR5, tracer 0.1μM)","NanoBRET Fold Response (LGR5, tracer 1μM)",also measured
CCOC(=O)c1cc(C#N)c(N2CCC(C(=O)NS(=O)(=O)Cc3ccccc3/C=C/C(=O)NCCNC(=O)CCc3ccc4n3[B-](F)(F)[N+]3=C(c5ccc[nH]5)C=CC3=C4)CC2)nc1C [AZD1283-1-NB590],,,"NanoBRET Fold Response (LGR5, 0.1μM): 0.86; NanoBRET Fold Response (LGR5, 1μM): 0.91"
N#CN=C(NCCCOc1cccc(CN2CCCCC2)c1)NCCNC(=O)CCOCCOCCOCCOCCNC(=O)CCc1ccc2n1[B-](F)(F)[N+]1=C(c3ccc[nH]3)C=CC1=C2 [Aminopotentidine-2-NB590],0.79,1.15,
CN(C)CCC=C1c2ccccc2CCc2ccc(C(=O)NCCNC(=O)CCOCCOCCOCCOCCNC(=O)CCc3ccc4n3[B-](F)(F)[N+]3=C(c5ccc[nH]5)C=CC3=C4)cc21 [Amitriptyline-a-2-NB590],,,NanoBRET Fold Response (tracer at 0.1μM): 0.91; NanoBRET Fold Response (tracer at 1μM): 1.02
CN(C)CCC=C1c2ccccc2CCc2ccc(C(=O)NCCNC(=O)CCOCCOCCOCCOCCNC(=O)CCc3ccc4n3[B-](F)(F)[N+]3=C(c5ccc[nH]5)C=CC3=C4)cc21 [Amitriptyline-b-2-NB590],,,"NanoBRET Fold Response (tracer at 0.1μM, listed as amitriptyline-b-2-NB590): 1.19; NanoBRET Fold Response (tracer at 1μM, listed as amitriptyline-b-2-NB590): 1.19"
CN(CCC=C1c2ccccc2CCc2ccccc21)C(=O)CCOCCOCCOCCOCCNC(=O)CCc1ccc2n1[B-](F)(F)[N+]1=C(c3ccc[nH]3)C=CC1=C2 [Amitriptyline-e-2-NB590],,,NanoBRET Fold Response (tracer at 1μM): 0.85
COc1ccc2c(n1)c(CCNC(C)=O)cn2CCNC(=O)CCc1ccc2n1[B-](F)(F)[N+]1=C(c3ccc[nH]3)C=CC1=C2 [Azamelatonin-1-NB590],,,NanoBRET Fold Response (0.1μM tracer): 0.96; NanoBRET Fold Response (1μM tracer): 0.96
COc1ccc2[nH]c(-c3ccc(CNC(=O)CCOCCOCCOCCOCCNC(=O)CCc4ccc5n4[B-](F)(F)[N+]4=C(c6ccc[nH]6)C=CC4=C5)cc3)c(CCNC(C)=O)c2n1 [AzomelatoninICO9-2-NB590],,,NanoBRET Fold Response (0.1μM tracer): 1.35; NanoBRET Fold Response (1μM tracer): 0.94
O=C(CCOCCOCCOCCOCCNC(=O)CCc1ccc2n1[B-](F)(F)[N+]1=C(c3ccc[nH]3)C=CC1=C2)NCCCN1CCN(C2=Nc3cc(Cl)ccc3Nc3ccccc32)CC1 [Clozapine-a-2-NB590],,,"NanoBRET Fold Response (LGR5, 0.1μM tracer): 0.94; NanoBRET Fold Response (LGR5, 1μM tracer): 0.79"
CN1CCN(C2=Nc3cc(Cl)ccc3Nc3ccc(CNC(=O)CCOCCOCCOCCOCCNC(=O)CCc4ccc5n4[B-](F)(F)[N+]4=C(c6ccc[nH]6)C=CC4=C5)cc32)CC1 [Clozapine-b-2-NB590],,,"NanoBRET Fold Response (LGR5, 0.1μM tracer): 0.95"
CN1CCN(C2=Nc3cc(Cl)ccc3N(CC(=O)NCCOCCOCCOCCOCCNC(=O)CCc3ccc4n3[B-](F)(F)[N+]3=C(c5ccc[nH]5)C=CC3=C4)c3ccccc32)CC1 [Clozapine-c-2-NB590],,,"NanoBRET Fold Response (LGR5, 1μM tracer): 0.83"
O=C(CCOCCOCCOCCOCCNC(=O)CCc1ccc2n1[B-](F)(F)[N+]1=C(c3ccc[nH]3)C=CC1=C2)NCCCN1CCN(C2=Nc3ccccc3Oc3ccc(Cl)cc32)CC1 [Loxapine-a-2-NB590],0.94,0.97,
COc1ccccc1N1CCN(CCCCN2C(=O)c3ccc(CNC(=O)CCOCCOCCOCCOCCNC(=O)CCc4ccc5n4[B-](F)(F)[N+]4=C(c6ccc[nH]6)C=CC4=C5)cc3C2=O)CC1 [NAN-190-2-NB590],1.22,0.83,
COc1ccccc1N1CCN(CCCCN2C(=O)c3ccc(CNC(=O)CCOCCNC(=O)c4ccc(CNC(=O)CCc5ccc6n5[B-](F)(F)[N+]5=C(c7ccc[nH]7)C=CC5=C6)cc4)cc3C2=O)CC1 [NAN-190-3-NB590],1.30,0.72,
O=C(CCc1ccc2n1[B-](F)(F)[N+]1=C(c3ccc[nH]3)C=CC1=C2)NCc1ccc(C(=O)NCCOCCC(=O)N[C@@H]2CC[C@@]3(O)[C@H]4Cc5ccc(O)c6c5[C@@]3(CCN4CC3CC3)[C@H]2O6)cc1 [Naltrexone-3-NB590],0.41,1.33,
Cc1cc2c(s1)Nc1ccccc1N=C2N1CCN(CCCNC(=O)CCOCCOCCOCCOCCNC(=O)CCc2ccc3n2[B-](F)(F)[N+]2=C(c4ccc[nH]4)C=CC2=C3)CC1 [Olanzapine-a-2-NB590],0.91,0.81,
O=C(CCc1ccc2n1[B-](F)(F)[N+]1=C(c3ccc[nH]3)C=CC1=C2)NCc1ccc(C(=O)NCCOCCOCCNCC(O)COc2cccc3ccccc23)cc1 (stereo not drawn) [Propranolol-3-NB590],,,"NanoBRET Fold Response (LGR5, 0.1μM): 1.10; NanoBRET Fold Response (LGR5, 1μM): 0.93"
O=C(CCc1ccc2n1[B-](F)(F)[N+]1=C(c3ccc[nH]3)C=CC1=C2)NCCOCCOCCNC(=O)OCCOCCN1CCN(C2=Nc3ccccc3Sc3ccccc32)CC1 [Quetiapine-a-2-NB590],1.02,0.78,
Cc1nc2n(c(=O)c1CCN1CCC(c3noc4cc(F)ccc34)CC1)CCCC2OC(=O)NCCOCCOCCOCCOCCNC(=O)CCc1ccc2n1[B-](F)(F)[N+]1=C(c3ccc[nH]3)C=CC1=C2 (stereo not drawn) [Risperidone-2-NB590],1.07,1.18,
CC(C)N(CC[C@H](c1ccccc1)c1cc(CCNC(=O)CCOCCOCCOCCOCCNC(=O)CCc2ccc3n2[B-](F)(F)[N+]2=C(c4ccc[nH]4)C=CC2=C3)ccc1O)C(C)C [Tolterodine-2-NB590],0.91,0.71,
CC(C)N(CC[C@H](c1ccccc1)c1cc(CCNC(=O)c2ccc(CNC(=O)CCc3ccc4n3[B-](F)(F)[N+]3=C(c5ccc[nH]5)C=CC3=C4)cc2)ccc1O)C(C)C [Tolterodine-BZ-NB590],0.91,0.89,
CCCn1c(=O)c2[nH]c(-c3ccc(OCC(=O)NCCNC(=O)CCOCCNC(=O)c4ccc(CNC(=O)CCc5ccc6n5[B-](F)(F)[N+]5=C(c7ccc[nH]7)C=CC5=C6)cc4)cc3)nc2n(CCC)c1=O [XAC-3-NB590],0.95,0.89,
